Measurements published in patent publication US5691374A, “Diaryl-5-oxygenated-2-(5H) -furanones as COX-2 inhibitors” (Merck Frosst Canada Inc., priority 1995, dated 1997).
pIC50: −log10 of the molar value.

What was measured:
COX-2 = molecular target: T1, COX-2 (Homo sapiens, UniProt P35354); experiment: Human Whole Blood (HWB) Assay: COX-2 (LPS-induced PGE2 production); type: cell-based; conditions: LPS-induced PGE2, 24 hours at 37° C.
T1 construct: incubation of human whole blood with LPS (lipopolysaccharide), which induces COX-2; from tissue; host or cells: fresh heparinized human whole blood from male and female volunteers, LPS-stimulated for 24 hours
T1 sequence (P35354 18-604): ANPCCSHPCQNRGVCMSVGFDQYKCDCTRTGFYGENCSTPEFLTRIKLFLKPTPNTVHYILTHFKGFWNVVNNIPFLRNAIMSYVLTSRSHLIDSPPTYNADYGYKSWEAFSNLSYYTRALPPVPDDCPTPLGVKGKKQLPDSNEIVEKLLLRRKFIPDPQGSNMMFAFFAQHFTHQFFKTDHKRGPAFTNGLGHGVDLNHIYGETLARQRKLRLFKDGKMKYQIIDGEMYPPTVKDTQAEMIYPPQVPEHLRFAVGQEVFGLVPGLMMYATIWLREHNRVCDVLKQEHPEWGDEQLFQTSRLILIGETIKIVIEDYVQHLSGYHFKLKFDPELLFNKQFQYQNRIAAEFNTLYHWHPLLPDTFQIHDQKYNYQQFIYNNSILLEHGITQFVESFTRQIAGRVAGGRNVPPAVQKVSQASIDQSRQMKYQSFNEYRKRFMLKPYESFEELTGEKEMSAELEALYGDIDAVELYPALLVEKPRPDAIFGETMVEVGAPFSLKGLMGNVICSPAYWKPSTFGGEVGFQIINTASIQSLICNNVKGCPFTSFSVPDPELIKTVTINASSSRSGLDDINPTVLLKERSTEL
Description: Human Whole Blood (HWB) Assay Human whole blood provides a protein and cell-rich milieu appropriate for the study of biochemical efficacy of anti-inflammatory compounds such as selective COX-2 inhibitors. […] This is consistent with the observation that COX-2 inhibitors have no effect on PGE2 production in normal blood. These inhibitors are active only after incubation of human whole blood with LPS (lipopolysaccharide), which induces COX-2. This assay can be used to evaluate the inhibitory effect of selective COX-2 inhibitors on PGE2 production. As well, platelets in whole blood contain a large amount of the COX-1 enzyme. Immediately following blood clotting, platelets are activated through a thrombin-mediated mechanism. This reaction results in the production of thromboxane B2 (T×B2) via activation of COX-1. Thus, the effect of test compounds on T×B2 levels levels following blood clotting can be examined and used as an index for COX-1 activity. Therefore, the degree of selectivity by the test compound can be determined by measuring the levels of PGE2 after LPS induction (COX-2) and T×B2 following blood clotting (COX-1) in the same assay. A. COX-2 (LPS-induced PGE2 production) Fresh blood was collected in heparinized tubes by venipuncture from both male and female volunteers. The subjects had no apparent inflammatory conditions and had not taken any NSAIDs for at least 7 days prior to blood collection. Plasma was immediately obtained from a 2 mL blood aliquot to use as blank (basal levels of PGE2). The remaining blood was incubated with LPS ([…] final concentration, Sigma Chem, #L-2630 from E. coli; diluted in 0.1% BSA-Phosphate buffered saline) for […]. […] At the end of the incubation, the blood was centrifuged at 12,000×g for 5 minutes to obtain plasma. A […] aliquot of plasma was mixed with […] of methanol for protein precipitation. The supernatant was obtained and was assayed for PGE2 using a radioimmunoassay kit (Amersham, RPA#530) after conversion of PGE2 to its methyl oximate derivative according to the manufacturer's procedure. Compounds of the present invention are inhibitors of cyclooxygenase-2 and are thereby useful in the treatment of cyclooxygenase-2 mediated diseases as enumerated above. The activities of the compounds against cyclooxygenase may be seen in the representative results shown below. In the assay, inhibition is determined by measuring the amount of prostaglandin E2 (PGE2) synthesized in the presence of arachidonic acid, cyclooxygenase-1 or cyclooxygenase-2 and a putative inhibitor. The IC50 values represent the concentration of putative inhibitor required to return PGE2 synthesis to 50% of that obtained as compared to the uninhibited control.

Rat Paw Edema = Rat Paw Edema Assay; type: in vivo; conditions: male Sprague-Dawley rats, po 1 hr before carrageenan, paw volume increase 3 hr later
Description: Rat Paw Edema Assay-Protocol
Male Sprague-Dawley rats (150-200 g) were fasted overnight and were given po either vehicle (1% methocel or 5% Tween 80) or a test compound. One hr later, a line was drawn using a permanent marker at the level above the ankle in one hind paw to define the area of the paw to be monitored. The paw volume (V0) was measured using a plethysmometer (Ugo-Basile, Italy) based on the principle of water displacement. The animals were then injected subplantarly with […] of 1% carrageenan solution in saline (FMC Corp, Maine) into the paw using an insulin syringe with a 25-gauge needle (i.e. […] carrageenan per paw). Three hr later, the paw volume (V3) was measured and the increases in paw volume (V3 -V0) were calculated. The animals were sacrificed by CO2 aphyxiation and the absence or presence of stomach lesions scored. Data were compared with the vehicle-control values and percent inhibition calculated. Since a maximum of 60-70% inhibition (paw edema) was obtained with standard NSAIDs, ED50 values were used for comparison. All treatment groups were coded to eliminate observer bias.

COX-1 = molecular target: T2, COX-1 (Homo sapiens, UniProt P23219); experiment: Human Whole Blood (HWB) Assay: COX-1 (Clotting-induced TxB2 production); type: cell-based; conditions: clotting-induced TxB2, 1 hour at 37° C.
T2 construct: platelets in whole blood contain a large amount of the COX-1 enzyme; from tissue; host or cells: fresh human whole blood without anticoagulant, allowed to clot (platelets)
Description: Human Whole Blood (HWB) Assay
Human whole blood provides a protein and cell-rich milieu appropriate for the study of biochemical efficacy of anti-inflammatory compounds such as selective COX-2 inhibitors. […] This is consistent with the observation that COX-2 inhibitors have no effect on PGE2 production in normal blood. These inhibitors are active only after incubation of human whole blood with LPS (lipopolysaccharide), which induces COX-2. This assay can be used to evaluate the inhibitory effect of selective COX-2 inhibitors on PGE2 production. As well, platelets in whole blood contain a large amount of the COX-1 enzyme. Immediately following blood clotting, platelets are activated through a thrombin-mediated mechanism. This reaction results in the production of thromboxane B2 (T×B2) via activation of COX-1. […] Therefore, the degree of selectivity by the test compound can be determined by measuring the levels of PGE2 after LPS induction (COX-2) and T×B2 following blood clotting (COX-1) in the same assay. […]
Compounds of the present invention are inhibitors of cyclooxygenase-2 and are thereby useful in the treatment of cyclooxygenase-2 mediated diseases as enumerated above. […] In the assay, inhibition is determined by measuring the amount of prostaglandin E2 (PGE2) synthesized in the presence of arachidonic acid, cyclooxygenase-1 or cyclooxygenase-2 and a putative inhibitor. […]

T2 sequence (P23219 24-599): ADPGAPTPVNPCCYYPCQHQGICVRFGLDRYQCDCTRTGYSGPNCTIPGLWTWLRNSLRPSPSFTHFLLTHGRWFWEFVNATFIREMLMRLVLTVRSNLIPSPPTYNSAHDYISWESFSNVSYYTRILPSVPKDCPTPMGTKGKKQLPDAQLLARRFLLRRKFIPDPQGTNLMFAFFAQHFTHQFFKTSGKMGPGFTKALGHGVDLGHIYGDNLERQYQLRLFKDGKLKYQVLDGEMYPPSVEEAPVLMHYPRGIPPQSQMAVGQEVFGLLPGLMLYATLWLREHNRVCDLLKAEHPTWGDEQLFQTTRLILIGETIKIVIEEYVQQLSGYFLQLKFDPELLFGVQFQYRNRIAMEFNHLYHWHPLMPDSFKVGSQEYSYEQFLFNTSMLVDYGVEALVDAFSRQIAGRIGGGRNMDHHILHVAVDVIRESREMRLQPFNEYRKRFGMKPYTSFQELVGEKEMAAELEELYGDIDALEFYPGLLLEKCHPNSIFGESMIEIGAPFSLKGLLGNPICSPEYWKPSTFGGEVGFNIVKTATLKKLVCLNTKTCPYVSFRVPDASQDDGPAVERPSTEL

| Structure (SMILES) | pIC50 (COX-2) | ED50 (Rat Paw Edema) | pIC50 (COX-1) |
| --- | --- | --- | --- |
| CC1(O)OC(=O)C(c2ccccc2)=C1c1ccc(S(C)(=O)=O)cc1 (centres unmarked) [Example 4, 5-Hydroxy-5-methyl-4-(4-(methylsulfonyl)phenyl)-3-phenyl-2-(5H)-furanone] | 5.90 | 1.53 mg/kg |  |
| CC1(O)OC(=O)C(c2ccc(F)cc2)=C1c1ccc(S(C)(=O)=O)cc1 (centres unmarked) [Example 5, 3-(4-Fluorophenyl)-5-hydroxy-5-methyl-4-(4-(methylsulfonyl)phenyl)-2-(5H)-furanone] | 5.85 | 1.84 mg/kg |  |
| CC1(O)OC(=O)C(c2ccc(Cl)cc2)=C1c1ccc(S(C)(=O)=O)cc1 (centres unmarked) [Example 6, 3-(4-Chlorophenyl)-5-hydroxy-5-methyl-4-(4-(methylsulfonyl)phenyl)-2-(5H)-furanone] | 5.62 | 1.41 mg/kg |  |
| COC1(C)OC(=O)C(c2ccccc2)=C1c1ccc(S(C)(=O)=O)cc1 (centres unmarked) [Example 10, 5-Methoxy-5-methyl-4-(4-(methylsulfonyl)phenyl)-3-phenyl-2-(5H)-furanone] | > 6.43 | 1.94 mg/kg |  |
| COC1(C)OC(=O)C(c2ccc(F)cc2)=C1c1ccc(S(C)(=O)=O)cc1 (centres unmarked) [Example 15, 3-(4-Fluorophenyl)-5-methoxy-5-methyl-4-(4-(methylsulfonyl)phenyl)-2-(5H)-furanone] | > 6.43 | 2.8 mg/kg | < 4.52 |
